Assay results taken from patent publication US12708673B2, “Methods and compositions related to peptides and proteins with c-terminal elements” (Sanford Burnham Prebys Medical Discovery Institute, priority 2008, dated 2026).
“Also recorded” adds a separate entry of the source.

Columns and labels:
[1] = system: PPC-1 cells; assay: Protease treatment of phage followed by phage binding assay on PPC-1 cells at 4° C.; assay type: cell-based, human
Experimental: 5×10^8 phage particles were incubated with indicated volumes of 2.5% trypsin at 37° C. for 20 min, followed by incubation of the phage with 1×10^6 PPC1 cells at 4° C. for 3 hours. Binding is expressed as fold over non-binding G7 control phage (the internalization of which was not affected by the trypsin treatment).
10^9 pfu of RPARPARA (SEQ ID NO:3) phage was treated with indicated amounts of trypsin at 37° C. followed by phage binding assay at 4° C. The data are representative of 4 independent binding experiments.
FIGS. 20A-20C show urokinase dependent CendR peptide. FIG. 20A: The design of a uPA-activatable CendR peptide (uCendR). […] Statistical analysis was performed with ANOVA (b); n=3; error bars indicate s.d.; triple asterisk, p<0.001. Scale bars: 20 μm.
(§1) For biopanning and phage binding studies (Hoffman, J. A. et al., 2004), cultured cells were grown to confluence and harvested with trypsin and mouse organs were dissociated using Medimachine (BD Biosciences, San Jose, CA). To measure phage binding, 10^6 cells in binding buffer (DMEM containing 1% BSA) were incubated with 10^9 pfu/ml of T7 phage for 1 hour at 4° C. The cells were washed 4 times with the binding buffer, lysed in LB bacterial growth medium containing 1% NP-40, and titrated. Phage internalization assays used the same procedure, except that the cells were incubated with the phage at 37° C., and that an acidic buffer (500 mM sodium chloride, 0.1 M glycine, 1% BSA, pH 2.5) was used instead of binding buffer in the second wash.
Protease treatment of phage and qdots. 10^9 phage particles or 50 μl of peptide-coated qdots phage were treated with 50 iu of uPA, 25 μg of crystalline trypsin, 50 iu of thrombin, or 25 μg of collagenase type I (all Sigma, St. Louis, Mo).

[2] = biological target: T1, wild-type NRP-1 (Homo sapiens, UniProt O14786); assay: Phage binding and internalization in M21 melanoma cells transiently transfected with wild-type NRP-1; assay type: cell-based
T1 construct: expressed in transfected cells; host or cells: M21 melanoma cells, transient transfection with lipofectamine; pcDNA3.1(+) construct, gift of Dr. Michael Klagsbrun
Experimental: (§2) FIGS. 18A-18C show the identification and validation of NRP-1 as the CendR receptor. FIG. 18A: Affinity chromatography of proteins interacting with RPARPAR (SEQ ID NO: 2) peptide. PPC-1 tumor tissue was extracted with a 200 mM glucopyranoside buffer, and the extract was incubated with RPARPAR-coated (SEQ ID NO:2) beads, followed by extensive washes, and elution with 2 mM free RPARPAR (SEQ ID NO:2) peptide. Note appearance of a 130 kDa band, identified by mass spectroscopy as NRP-1, starting in the fraction 3 of the eluate. Upper panel—a silver stained gel, lower panel—an immunoblot with anti-NRP-1 antibody. FIG. 18B: Binding of RPARPAR (SEQ ID NO:2) phage to M21 melanoma cells transiently transfected with wild-type NRP-1 (NRP-1), triple mutant NS346A-E348A-T349A NRP-1 (Mutant NRP-1), or parental pcDNA3.1plasmid (Vector), and to non-transfected M21 cells. FIG. 18C: (c, d), Confocal immunofluorescence images of NRP-1 and RPARPAR (SEQ ID NO:2) T7 phage in PPC-1 cells incubated with phage at 37° C. for 40 minutes (c) and 3 hours (d). The phage and NRP-1 co-localize extensively, but there appears to be a progressive decrease in the overlap (arrowheads in c and d) and appearance of structures positive for the phage only (arrows, d). (e) Immunostaining and confocal imaging of RPARPAR (SEQ ID NO:2) phage and NRP-1 in M21 cells transiently transfected with NRP-1. […]

[3] = system: PPC-1 cells; assay: T7 phage binding to PPC-1 (PPC1) cells at 4° C., quantified by titration/plaque assay; assay type: cell-based, human
Experimental: (§3) FIG. 2A: Binding of T7 phage to prostate cancer cells depends on the display of a C-terminal arginine on the phage particles. PPC1 cells were incubated with T7 bacteriophage displaying derivatives of the G7 (upper graph) or RPARPAR peptide (SEQ ID NO: 2) (lower graph) at 4° C., and the bound phage was quantified by plaque assay. Binding is expressed in fold over of the non-binding G7 control phage. FIG. 2B: Phage displaying C-terminal arginine is internalized into cultured PPC1 cells (arrow, nuclear internalization; arrowhead, cytoplasmic internalization). A panel of T7 phage clones were incubated at 37° C. with PPC1 cells grown on collagen-coated coverslips, stained with anti T7 antibody and imaged by confocal microscopy.
(§4) Phage display. For in vivo phage display, mice were injected intravenously with 10^10 plaque-forming units (pfu) of T7 phage followed by perfusion of the circulatory system and determination of the bound phage in target organs by titration. For cell binding studies on cultured cells (in vitro display) and organ-derived cell suspensions (ex vivo display), the cells were incubated with 10^9 pfu of phage at 4° C., washed, lysed, and quantified by titration. Incubation at 37° C. followed by low pH wash (glycine-HCl, pH 2.5) was used to assess the amount of internalized phage.
as §1
(§5) Centrifugation on a silicone oil cushion (1.03 g/ml) was used to separate unbound phage from cells during time course experiments. Inhibitors of phage binding and internalization (heparin, chondroitin, glycocalyx removal enzymes, endocytosis inhibitors, free peptides, quantum dots and UV-inactivated phage) were added to the cells 20 minutes prior to incubation with phage. Endocytosis inhibitors used in this study were the following: nystatin (50 μg/ml), genistein (100 μg/ml), chlorpromazine (5 μg/ml), 5-(N-ethyl-N-isopropyl) amiloride (100 μM), wortmannin (10 μM).

[4] = system: cells; assay: Cell internalization of iRGD compared with other RGD peptides; assay type: cell-based
[5] = system: pancreatic tumors; assay: Tumor homing of intravenously injected fluorescamine-labeled iRGD peptide in PDAC mouse; assay type: in vivo; conditions: intravenous, 4.5 hrs circulation
Experimental: Approximately 200 μg of fluorescamine-labeled iRGD peptide was injected into a pancreatic ductal adenocarcinoma (PDAC) mouse through the tail vein, and was allowed to circulate for 4.5 hrs. The organs were harvested and observed under UV light (upper panel). […] T7 phage displaying iRGD peptides (main panel) or CG7C control peptides (right upper window) were incubated with PPC1 cells cultured on collagen-I coated cover slips for 2 hours at 37° C., stained with anti T7 antibody and a plasma membrane marker, and imaged by a confocal microscope.

[6] = biological target: T2, NRP-1 (Homo sapiens, UniProt O14786); assay: Affinity chromatography of PPC-1 tumor extract on immobilized RPARPAR peptide; assay type: binding; conditions: 130 kDa protein, MALDI-TOF
T2 construct: from tissue; host or cells: orthotopic PPC-1 prostate tumor xenografts grown in BALB/c nude mice, extracted with n-octyl-beta-D-glucopyranoside
Experimental: as §2

[7] = system: PPC-1 cells; assay: T7 phage internalization into PPC-1 (PPC1) cells at 37° C. (acid wash and titration, or anti-T7 staining and confocal imaging); assay type: cell-based, human
Experimental: as §3, §4, §1, §5
Immunofluorescence staining. Cultured cells (2×10^5 cells) were grown in 6-well tissue culture plates on collagen-I coated coverslips (BD Biosciences, San Jose, CA) overnight at 37° C. in 5% CO2, and incubated with 10^8 pfu of T7 phage. The cells were fixed in 4% paraformaldehyde or cold (−20° C.) methanol, and stained with antibodies. Nuclei were stained with DAPI or […]. A polyclonal rabbit anti-T7 antibody was generated in-house as described previously (Laakkonen, P. et al. 2002b), except that an additional phage purification step using […] centrifugation was included. Other primary antibodies used were rat anti-mouse CD31 monoclonal antibody (BD Biosciences), rabbit anti-NRP-1, mouse anti-human Lamp-1, mouse anti-human caveolin (Millipore, Temecula, CA), mouse anti-NRP-1 (Miltenyi Biotec Inc., Auburn, CA), mouse anti-human EEA-1 (BD Biosciences, San Jose, CA). The secondary antibodies, Alexa594 goat antibodies to mouse, rat, and rabbit immunoglobulins and Alexa488 donkey anti-rabbit antibody were from Invitrogen (Carlsbad, CA). Cells and tissue sections were examined by confocal microscopy (Fluoview 500, Olympus America Inc., Center Valley, PA).

[8] = system: spontaneous pancreatic ductal adenocarcinoma; assay: Spreading of intravenously injected phage into tumor tissue of transgenic mice bearing pancreatic ductal adenocarcinoma; assay type: in vivo, mouse; conditions: 15 min circulation
Source text: The mice were than perfused with PBS containing 1% BSA, and the tumors were harvested. Cryosections of the tumors were stained with an anti-T7 phage antibody, an anti CD31 antibody, and DAPI. […] Staining is denoted by the bright coloring in both panels of FIG. 9.

T1 sequence (O14786 22-923): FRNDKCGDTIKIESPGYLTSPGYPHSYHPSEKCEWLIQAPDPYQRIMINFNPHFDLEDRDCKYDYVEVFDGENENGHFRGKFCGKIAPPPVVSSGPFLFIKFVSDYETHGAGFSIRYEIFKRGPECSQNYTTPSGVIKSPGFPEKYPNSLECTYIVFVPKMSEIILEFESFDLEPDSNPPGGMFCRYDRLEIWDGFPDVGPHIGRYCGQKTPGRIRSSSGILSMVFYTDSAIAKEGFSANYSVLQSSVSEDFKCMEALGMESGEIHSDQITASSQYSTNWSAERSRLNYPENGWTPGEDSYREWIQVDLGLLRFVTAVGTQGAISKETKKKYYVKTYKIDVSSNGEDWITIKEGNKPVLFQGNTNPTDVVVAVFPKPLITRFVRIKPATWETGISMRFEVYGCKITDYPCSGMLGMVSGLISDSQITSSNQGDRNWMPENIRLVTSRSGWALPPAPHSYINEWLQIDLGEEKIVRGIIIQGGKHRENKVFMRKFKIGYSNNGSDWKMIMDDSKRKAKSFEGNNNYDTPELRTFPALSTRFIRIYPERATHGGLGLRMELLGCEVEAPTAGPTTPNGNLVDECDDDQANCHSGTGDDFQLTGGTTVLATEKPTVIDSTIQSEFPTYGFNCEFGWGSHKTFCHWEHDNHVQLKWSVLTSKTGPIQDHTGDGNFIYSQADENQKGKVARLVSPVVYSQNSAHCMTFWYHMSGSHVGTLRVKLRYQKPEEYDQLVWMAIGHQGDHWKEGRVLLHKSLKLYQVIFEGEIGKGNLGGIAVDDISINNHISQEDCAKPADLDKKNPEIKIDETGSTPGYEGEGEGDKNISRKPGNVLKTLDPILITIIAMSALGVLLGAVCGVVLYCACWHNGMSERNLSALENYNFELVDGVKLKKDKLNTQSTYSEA
T2 sequence (O14786 22-923): as above

RPARPARA [RPARPARA phage]
Increase of phage binding to cells by trypsin treatment of the phage ([1]; phage incubated with trypsin at 37° C., binding at 4° C.): more than 100 fold
Effect of trypsin treatment of phage on binding (in words) ([1]; trypsin): restored
Phage binding and internalization by M21 cells with forced expression of NRP-1 [2]: is not internalized
Phage binding to PPC-1 cells (in words) ([3]; 4° C.): abolished the binding
Cell binding, fold over G7-displaying phage ([3]; PPC1 cells, without trypsin treatment): 2.8 fold

CRGDKGPDC [iRGD peptide]
Internalization into cells relative to other RGD peptides [4]: more strongly internalized into cells than any other RGD peptide
Tumor homing [5]: strong tumor homing; also recorded: homes to pancreatic tumors

RPARPAR (REAGENT) [RPARPAR peptide]
Protein released from immobilized peptide by elution with free RPARPAR peptide [6]: NRP-1
Effect of unlabelled peptide in binding buffer on binding and internalization of VEGF-C7, enhanced tuftsin and A7R phage [7]: reduced

CRGDKGPDC [iRGD phage]
Distribution of phage in pancreatic tumor tissue [8]: extensively taken up by the tumor cells forming the pancreatic tumor ducts
Phage internalization into PPC-1 cells (in words) ([7]; 37° C.): internalizes extensively into the tumor cells
